The text below walks through data of patent US8940331B2, “Hydrogels, methods of making hydrogels, methods of using hydrogels, and methods of isolating, trapping, attracting, and/or killing cancer cells” (The Board of Trustees of the Leland Stanford Junior …, priority 2008, dated 2015).

Like-named read-outs stand apart in the source and are kept apart here. Square brackets hold non-standard residues; d marks the D form. Peptide text beside a SMILES is read from it. Nspe = C[C@H](NCC(=O)O)c1ccccc1; Nphe = O=C(O)CNCc1ccccc1; Nlys = NCCCCNCC(=O)O

One series concerns human RBCs. Format: cell-based. How it is done:
(§1) A library of cationic, amphipathic peptoid oligomers (“capetoids”) with various chain lengths, charges, helicity, hydrophobicity and amphipathicity have been synthesized. Their activities towards several in vitro cultured cancer cell lines were tested via MTS assays. Primary dermal fibroblasts and freshly isolated red blood cells were also tested to estimate their biosafety. […] In some concentration ranges, these peptoids kill cancer cells efficiently while being relatively safe to primary dermal fibroblasts. […] Furthermore, the actions of these peptoids were not affected by the known multidrug resistance. In MCF 7 cells and the multidrug resistant MCF 7 cells (kindly provided by Prof. Brandy Sikic at Stanford) which overexpress P-glycoproteins, these peptoids had similar cytotoxicities.

The format of series [1] is cell-based. The conditions noted are these: MTS assay, cells treated 24 h, concentration causing 50% cell death. How it is done:
as §1

A short description of series [2]: MTS cell viability assay, primary dermal fibroblasts. The class given is cell-based. The conditions noted are these: MTS assay, cells treated 24 h; concentration causing 50% cell death; read-out: LC50 Primary dermal fibroblast. As to the method:
as §1
A general note: Formazan colour is commonly taken as a measure of viable cells.

The test system of series [3] is Primary dermal fibroblast. The description is as above. The conditions noted are these: in vitro; data not shown. Format: cell-based. How it is done:
as §1

The next series has as its system breast cancer cells. The series is described as follows: In vitro chemotaxis transwell assay. The class given is cell-based. From the text: Different chemoattractants can be chosen with regard to the cancer types of interest. As an example, Table 2 summarizes chemoattractant candidates for breast cancer. The efficacies and dosages of chemoattractants are being characterized by in vitro chemotaxis assays. The chemotactic effects of an important candidate, stromal cell-derived factor 1 (SDF-1), have been confirmed in vitro using the transwell assay.

[4] abbreviates: read-out: LC50 Lncap (prostate cancer).
Setting [5] is: read-out: LC50 MCF7 (breast cancer).
[6] abbreviates: read-out: LC50 MEL28 (Melanoma).
Where [7] appears, read: read-out: LC50 Ovcar3 (ovarian cancer).

In turn, `C[C@@H](c1ccccc1)N(CC(N)=O)C(=O)CN(C(=O)CN(CCCCN)C(=O)CN(Cc1ccccc1)C(=O)CN(Cc1ccccc1)C(=O)CN(CCCCN)C(=O)CN(C(=O)CN(C(=O)CN(CCCCN)C(=O)CN(Cc1ccccc1)C(=O)CN(Cc1ccccc1)C(=O)CNCCCCN)[C@@H](C)c1ccccc1)[C@@H](C)c1ccccc1)[C@@H](C)c1ccccc1` [1-Npm2,3,8,9, H-(NLys-Npm-Npm-NLys-Nspe-Nspe)2-NH2] had an HC10 Red blood cells with human RBCs of 80 µM. Also, the CC50 in series [1] (setting [4]) was 10.5 µM; in series [1] (setting [5]), 10 µM; in series [1] (setting [6]), 16.5 µM; in series [1] (setting [7]) it was 11 µM; in series [2], 18.5 µM.

In the series with human RBCs, `C[C@@H](c1ccccc1)N(CC(=O)N(CC(=O)N(CCCCN)CC(=O)N(CC(=O)N(CC(=O)N(CCCCN)CC(=O)N(CC(=O)N(CC(=O)N(CCCCN)CC(=O)N(CC(=O)N(CC(N)=O)Cc1ccccc1)Cc1ccccc1)Cc1ccccc1)Cc1ccccc1)Cc1ccccc1)Cc1ccccc1)Cc1ccccc1)C(=O)CNCCCCN` [1achiral-Nspe 2, H-NLys-Nspe-Npm-(NLys-Npm-Npm)3-NH2] (H-[Nlys][Nspe][Nphe][Nlys][Nphe][Nphe][Nlys][Nphe][Nphe][Nlys][Nphe][Nphe]-NH2) returned an HC10 Red blood cells of 160 µM. Besides, the CC50 in series [1] (setting [4]) is 8.5 µM; in series [1] (setting [5]) it was 14.5 µM; in series [1] (setting [6]), 18 µM; in series [1] (setting [7]), 15.5 µM; in series [2], 36.5 µM.

On to `COc1cccc2c1C(=O)c1c(O)c3c(c(O)c1C2=O)C[C@@](O)(C(=O)CO)C[C@@H]3O[C@H]1C[C@H](N)[C@H](O)[C@H](C)O1` [Doxorubicin, reference compound], for which the “Killing of primary fibroblasts compared with cancer cell lines” value in series [3] was “killed primary fibroblasts as efficiently as cancer cell lines”.

On to `C[C@@H](c1ccccc1)N(CC(N)=O)C(=O)CN(C(=O)CN(CCCCN)C(=O)CN(C(=O)CN(C(=O)CN(CCCCN)C(=O)CN(C(=O)CN(C(=O)CN(CCCCN)C(=O)CN(C(=O)CN(C(=O)CNCCCCN)[C@@H](C)c1ccccc1)[C@@H](C)c1ccccc1)[C@@H](C)c1ccccc1)[C@@H](C)c1ccccc1)[C@@H](C)c1ccccc1)[C@@H](C)c1ccccc1)[C@@H](C)c1ccccc1` [Peptoid 1, H-(NLys-Nspe-Nspe)4-NH2] (H-[Nlys][Nspe][Nspe][Nlys][Nspe][Nspe][Nlys][Nspe][Nspe][Nlys][Nspe][Nspe]-NH2), for which the “HC10 Red blood cells” value in the series with human RBCs (concentration causing 10% hemolysis of human RBCs) was 21000 µM. Moreover, the CC50 in series [1] (setting [4]) was found to be 5 µM; in series [1] (setting [5]), 4.5 µM; in series [1] (setting [6]), 5 µM; in series [1] (setting [7]), 6.5 µM; in series [2], 5 µM.

As to `NCCCCNCC(=O)N(CC(=O)N(CC(=O)N(CCCCN)CC(=O)N(CC(=O)N(CC(=O)N(CCCCN)CC(=O)N(CC(=O)N(CC(=O)N(CCCCN)CC(=O)N(CC(=O)N(CC(N)=O)Cc1ccccc1)Cc1ccccc1)Cc1ccccc1)Cc1ccccc1)Cc1ccccc1)Cc1ccccc1)Cc1ccccc1)Cc1ccccc1` [Peptoid 1achiral, H-(NLys-Npm-Npm)4-NH2] (H-[Nlys][Nphe][Nphe][Nlys][Nphe][Nphe][Nlys][Nphe][Nphe][Nlys][Nphe][Nphe]-NH2), in the series with human RBCs, the HC10 Red blood cells came out at 183 µM. Further, the CC50 in series [1] (setting [4]) came out at 10.5 µM; in series [1] (setting [5]), 15 µM; in series [1] (setting [6]), 18.5 µM; in series [1] (setting [7]) it was 16 µM; in series [2], 39.5 µM.

In turn, `C[C@@H](c1ccccc1)N(CC(N)=O)C(=O)CN(CCCCN)C(=O)CN(C(=O)CN(C(=O)CN(CCCCN)C(=O)CN(C(=O)CN(C(=O)CN(CCCCN)C(=O)CN(C(=O)CN(C(=O)CNCCCCN)[C@@H](C)c1ccccc1)[C@@H](C)c1ccccc1)[C@@H](C)c1ccccc1)[C@@H](C)c1ccccc1)[C@@H](C)c1ccccc1)[C@@H](C)c1ccccc1` [Peptoid 111mer, H-(NLys-Nspe-Nspe)3-NLys-Nspe-NH2] (H-[Nlys][Nspe][Nspe][Nlys][Nspe][Nspe][Nlys][Nspe][Nspe][Nlys][Nspe]-NH2) showed an HC10 Red blood cells in the series with human RBCs of 103 µM. For the same compound, the CC50 worked out at 8 µM in series [1] (setting [4]); 9 µM in series [1] (setting [5]); 15 µM in series [1] (setting [6]); 10.5 µM in series [1] (setting [7]); 18.5 µM in series [2].

On to `CC(=O)O[C@@]12CO[C@@H]1C[C@H](O)[C@@]1(C)C(=O)[C@H](O)C3=C(C)[C@@H](OC(=O)[C@H](O)[C@@H](NC(=O)OC(C)(C)C)c4ccccc4)C[C@@](O)([C@@H](OC(=O)c4ccccc4)[C@H]21)C3(C)C` [docetaxel, reference compound], for which, in series [3], the “Killing of primary fibroblasts compared with cancer cell lines” value is “killed primary fibroblasts as efficiently as cancer cell lines”.

For the compound stromal cell-derived factor 1 [SDF-1], the Chemotactic effects result in the series on breast cancer cells is reported as “confirmed”.
